Results on seven molecules are retold here after PMC12735688, “Discovery and Activity Evaluation of Novel Dibenzoxazepinone Derivatives as Glycogen Phosphorylase Inhibitors” (Molecules, 2025).

The target of assay [1] is T1, rabbit muscle glycogen phosphorylase a (RMGPa) (Oryctolagus cuniculus, UniProt P00489).
T1 construct: purchased
T1 sequence (P00489 2-843 limits assumed): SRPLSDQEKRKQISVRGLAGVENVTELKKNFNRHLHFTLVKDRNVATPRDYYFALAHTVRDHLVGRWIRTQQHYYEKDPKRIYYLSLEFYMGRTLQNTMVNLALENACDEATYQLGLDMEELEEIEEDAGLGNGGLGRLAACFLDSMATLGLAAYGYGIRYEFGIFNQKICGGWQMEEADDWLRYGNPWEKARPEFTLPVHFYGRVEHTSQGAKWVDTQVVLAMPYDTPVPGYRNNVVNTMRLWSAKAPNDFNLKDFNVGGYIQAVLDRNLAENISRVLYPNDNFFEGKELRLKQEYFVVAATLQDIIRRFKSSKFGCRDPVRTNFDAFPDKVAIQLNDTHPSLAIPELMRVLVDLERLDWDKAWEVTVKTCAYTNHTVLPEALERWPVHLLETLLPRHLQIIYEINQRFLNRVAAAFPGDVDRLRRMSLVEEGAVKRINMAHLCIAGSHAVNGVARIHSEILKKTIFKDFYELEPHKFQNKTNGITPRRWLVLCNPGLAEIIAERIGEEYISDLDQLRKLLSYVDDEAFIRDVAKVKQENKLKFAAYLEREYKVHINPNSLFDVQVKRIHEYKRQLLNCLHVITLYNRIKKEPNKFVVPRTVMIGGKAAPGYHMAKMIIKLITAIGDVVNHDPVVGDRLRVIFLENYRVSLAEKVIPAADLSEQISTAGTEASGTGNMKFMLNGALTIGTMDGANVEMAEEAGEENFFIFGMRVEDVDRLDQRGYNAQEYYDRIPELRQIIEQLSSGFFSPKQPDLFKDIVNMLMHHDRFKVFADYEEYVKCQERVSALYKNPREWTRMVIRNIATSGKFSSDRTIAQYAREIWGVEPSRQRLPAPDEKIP
Further details: method as in PMID 33906369. Conditions: previously reported parent compound; read-out: IC50 (RMGPa inhibition) of parent compound; cited from earlier work.

Assay [2] deals with T1, rabbit muscle glycogen phosphorylase a (RMGPa). The assay can be described thus: RMGPa enzyme inhibition assay (phosphate release, malachite green). Conditions: mean ± S.D. of three determinations; NI means no inhibition. The class given is biochemical. The protocol:
The synthesized compounds were evaluated in an enzyme inhibition assay against rabbit muscle glycogen phosphorylase a (RMGPa), a commercially available enzyme that shares considerable sequence similarity with human liver GPa. As described previously, the activity of RMGPa was measured by detecting the release of phosphate from glucose-1-phosphate in the direction of glycogen synthesis. PSN-357, a GP inhibitor in clinical Phase II, was used as positive control.
The inhibitory activity of the test compounds against RMGPa was evaluated using a microplate reader (Bio-Rad Laboratories, Berkeley, CA, USA), based on the release of inorganic phosphate during glycogenolysis. First, the test compounds were dissolved in DMSO and diluted to various concentrations for IC50 determination. A 100 μL aliquot of buffer, containing 50 mM Hepes (pH = 7.2), 100 mM potassium chloride (KCl), 2.5 mM magnesium chloride (MgCl2), 0.5 mM glucose-1-phosphate, 1 mg/mL glycogen, and the test compound solution, was added to a 96-well Costar microplate (Corning Inc., New York, NY, USA). The reaction mixture was incubated at 22 °C for 25 min, after which 150 μL of solution containing 10 mg/mL ammonium molybdate and 0.38 mg/mL malachite green was added to stop the reaction. The absorbance of phosphate was measured at 620 nm. IC50 values were determined by fitting the inhibition data to a dose–response curve using a logistic derivative equation.

Assay [3] concerns hyperglycemic mice induced by adrenaline. The assay can be described thus: Acute hypoglycemic experiment in adrenaline-induced hyperglycemic mice. Type of assay: in vivo, C57BL/6J mice. Conditions: 400 mg/kg single oral dose, about 2 h after administration; model group 8.91 ± 0.69; p < 0.01; mean ± SEM. As for the experimental part:
First, its ability was investigated by oral administration with one dose of 0.5% CMC-NA (model group) or compound Id at different concentrations (12.5, 25 and 50 mg/kg) for treatment. Metformin (400 mg/kg) was selected as a positive control.
The animal experiments were conducted following the method described in reference. Male C57BL/6J mice (6–8 weeks old, 18–20 g) were obtained from Beijing Huafukang Biotechnology Co., Ltd. (Beijing, China), maintained under standard conditions (food/water ad libitum), and acclimatized for 1 week. After acclimatization, baseline blood glucose was measured via tail vein sampling. Subsequently, mice were randomized into 6 groups (10/group) by blood glucose/body weight, with no significant differences in initial blood glucose (mean ± SEM). Post-grouping, daily oral 0.5% CMC-Na (as vehicle) was given. On the night before the experimental day, mice were fasted overnight with free access to water. On the experimental day, mice were orally administered Compound Id (50, 25, 12.5 mg/kg), metformin (400 mg/kg, as positive control), or 0.5% CMC-Na, followed by subcutaneous 0.2 mg/kg adrenaline to induce hyperglycemia. Finally, blood glucose was measured/recorded at 0, 30, 60, 90, and 120 min post-administration via JPS-5 meter.

SMILES strings stand for the structures. Where a name gives a salt, the structure may show the parent alone. Read-outs that look alike come from different tables or passages of the source.

One may read the IC50 as the point on the concentration scale where inhibition reaches its midpoint. For the molecule `O=C1CCOc2ccc(NC(=O)c3cc4cc(Cl)ccc4[nH]3)cc2N1` [Compound 1], the 50% inhibitory concentration (IC50) in assay [1] is 250 ± 50 nM. For `O=C(Nc1ccc2c(c1)NC(=O)c1ccc(C(F)(F)F)cc1O2)c1cc2cc(O)ccc2[nH]1` [IIb], half-maximal inhibition in assay [2] (IC50) was put at 723 ± 82 nM. Still for that read-out and setting: then `COc1ccc2[nH]c(C(=O)Nc3ccc4c(c3)NC(=O)c3ccc(C(F)(F)F)cc3O4)cc2c1` [IIc], with 840 ± 50 nM; and `COc1cnc2[nH]c(C(=O)Nc3ccc4c(c3)NC(=O)c3ccc(C(F)(F)F)cc3O4)cc2c1` [IId], with 1790 ± 104 nM; and `Cc1ccc2[nH]c(C(=O)Nc3ccc4c(c3)NC(=O)c3ccc(C(F)(F)F)cc3O4)cc2c1` [IIf], with 338 ± 55 nM.

Molecule `CCCc1cc(OC)c2c(c1)C(=O)Nc1cc(NC(=O)c3cc4cc(Cl)ccc4[nH]3)ccc1O2` [Ie, 5-chloro-N-(3-methoxy-11-oxo-5-propyl-10,11-dihydrodibenzo[b,f][1,4]oxazepin-8-yl)-1H-indole-2-carboxamide] showed an IC50 in assay [2] of 2180 ± 156 nM. For the molecule `CN(C)C(=N)N=C(N)N` [Metformin, Metformin hydrochloride, reference compound], the blood glucose in assay [3] was found to be 6.57 ± 0.71 mmol/L.
